Test system: BPI
Settings: confluent Caco2 intestinal epithelial monolayers, 1 μM, 24 hr, β actin internal standard (FIG. 5)

In the case of `CC[C@@H](O)/C=C/C=C\C[C@@H](O)/C=C/C=C/C=C\[C@@H](O)CCCC(=O)O` [5S,12R,18R-tri-HEPE], the “fold induction of BPI mRNA” value is reported as “BPI induction”.
